From patent publication US9012443B2 (Amgen Inc., priority 2011, dated 2015) come the findings set out here.

One series deals with Nav 1.7 (Homo sapiens (Human), UniProt Q15858). The experiment in a line: Nav 1.7 in vitro PX assay (PatchXpress whole cell voltage clamp). Format: cell-based. The conditions noted are these: 293 cells, human Nav1.7, partially inactivated state; read-out: Nav1.7 PX IC50 IP. The method in brief: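 Partially inactivated channel state (holding potential for 20–50% inactivation) probed in human Nav1.7-transfected 293 cells by automated patch clamp, test pulse −10 mV for 20 msec.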

The target of a further series is Nav 1.5 (Homo sapiens (Human), UniProt Q14524). Kind of series: Nav 1.5 in vitro PX assay (PatchXpress whole cell voltage clamp). Format: cell-based. As to conditions: 293 cells stably transfected with Nav 1.5; second part of table; read-out: Nav1.5 PX IC50. Summed up: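 HEK293 cells stably expressing Nav 1.5, whole-cell voltage clamp held at −50 mV; 20 msec test pulses to 0 mV at 0.1 Hz, each preceded by a step to −120 mV.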

Structures are written as SMILES.

Chain of Nav 1.5 (Q14524 whole entry): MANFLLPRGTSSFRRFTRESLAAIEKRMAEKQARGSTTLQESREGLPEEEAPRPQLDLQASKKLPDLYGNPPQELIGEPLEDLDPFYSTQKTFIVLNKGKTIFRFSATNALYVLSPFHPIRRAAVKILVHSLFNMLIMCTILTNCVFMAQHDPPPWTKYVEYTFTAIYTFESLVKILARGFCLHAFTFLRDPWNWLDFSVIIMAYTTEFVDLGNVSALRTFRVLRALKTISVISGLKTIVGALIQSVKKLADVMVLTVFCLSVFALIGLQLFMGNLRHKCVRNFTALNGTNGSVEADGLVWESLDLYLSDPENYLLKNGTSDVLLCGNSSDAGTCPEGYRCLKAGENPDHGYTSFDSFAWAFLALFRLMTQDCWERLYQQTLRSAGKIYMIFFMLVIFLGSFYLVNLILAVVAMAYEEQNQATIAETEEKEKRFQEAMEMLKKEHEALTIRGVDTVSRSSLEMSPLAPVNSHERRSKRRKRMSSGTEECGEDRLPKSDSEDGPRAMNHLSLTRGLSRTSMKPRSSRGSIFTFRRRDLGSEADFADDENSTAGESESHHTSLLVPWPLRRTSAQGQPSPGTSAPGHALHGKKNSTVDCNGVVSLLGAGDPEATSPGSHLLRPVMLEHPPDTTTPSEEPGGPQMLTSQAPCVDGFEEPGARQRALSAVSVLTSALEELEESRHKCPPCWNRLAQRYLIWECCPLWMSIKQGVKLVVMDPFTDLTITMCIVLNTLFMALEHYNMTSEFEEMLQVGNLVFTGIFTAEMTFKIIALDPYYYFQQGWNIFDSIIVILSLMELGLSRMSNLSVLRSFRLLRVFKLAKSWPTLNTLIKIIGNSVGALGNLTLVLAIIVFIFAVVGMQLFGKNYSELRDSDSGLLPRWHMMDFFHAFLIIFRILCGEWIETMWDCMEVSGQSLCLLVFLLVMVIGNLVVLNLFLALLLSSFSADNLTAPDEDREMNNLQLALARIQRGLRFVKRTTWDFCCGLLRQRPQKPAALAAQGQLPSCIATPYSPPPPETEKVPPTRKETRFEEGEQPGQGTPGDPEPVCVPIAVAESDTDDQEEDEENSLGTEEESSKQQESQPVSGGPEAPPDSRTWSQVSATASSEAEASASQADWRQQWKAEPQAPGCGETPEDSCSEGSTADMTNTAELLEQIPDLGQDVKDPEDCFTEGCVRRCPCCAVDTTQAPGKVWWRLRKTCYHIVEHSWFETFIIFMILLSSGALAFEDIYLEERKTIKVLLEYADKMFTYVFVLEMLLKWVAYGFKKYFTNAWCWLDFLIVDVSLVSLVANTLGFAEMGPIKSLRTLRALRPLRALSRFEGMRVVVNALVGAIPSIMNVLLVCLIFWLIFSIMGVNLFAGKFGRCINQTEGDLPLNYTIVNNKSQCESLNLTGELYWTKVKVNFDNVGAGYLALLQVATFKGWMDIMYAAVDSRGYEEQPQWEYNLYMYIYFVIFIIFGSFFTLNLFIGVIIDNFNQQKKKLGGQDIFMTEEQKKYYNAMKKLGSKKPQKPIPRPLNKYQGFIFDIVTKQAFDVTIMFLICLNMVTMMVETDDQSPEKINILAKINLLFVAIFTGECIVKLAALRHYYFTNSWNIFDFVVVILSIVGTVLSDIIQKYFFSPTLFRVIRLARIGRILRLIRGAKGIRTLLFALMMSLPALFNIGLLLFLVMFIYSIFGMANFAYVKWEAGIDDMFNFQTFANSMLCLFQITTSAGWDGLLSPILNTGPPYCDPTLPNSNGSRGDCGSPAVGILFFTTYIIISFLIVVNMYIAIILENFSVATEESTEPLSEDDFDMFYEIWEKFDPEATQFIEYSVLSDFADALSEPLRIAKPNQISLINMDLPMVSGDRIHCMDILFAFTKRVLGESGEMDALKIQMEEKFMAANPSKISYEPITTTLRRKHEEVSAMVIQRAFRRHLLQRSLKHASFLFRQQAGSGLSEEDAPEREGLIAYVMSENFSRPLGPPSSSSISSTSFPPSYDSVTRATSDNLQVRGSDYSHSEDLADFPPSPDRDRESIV
Chain of Nav 1.7 (Q15858 whole entry): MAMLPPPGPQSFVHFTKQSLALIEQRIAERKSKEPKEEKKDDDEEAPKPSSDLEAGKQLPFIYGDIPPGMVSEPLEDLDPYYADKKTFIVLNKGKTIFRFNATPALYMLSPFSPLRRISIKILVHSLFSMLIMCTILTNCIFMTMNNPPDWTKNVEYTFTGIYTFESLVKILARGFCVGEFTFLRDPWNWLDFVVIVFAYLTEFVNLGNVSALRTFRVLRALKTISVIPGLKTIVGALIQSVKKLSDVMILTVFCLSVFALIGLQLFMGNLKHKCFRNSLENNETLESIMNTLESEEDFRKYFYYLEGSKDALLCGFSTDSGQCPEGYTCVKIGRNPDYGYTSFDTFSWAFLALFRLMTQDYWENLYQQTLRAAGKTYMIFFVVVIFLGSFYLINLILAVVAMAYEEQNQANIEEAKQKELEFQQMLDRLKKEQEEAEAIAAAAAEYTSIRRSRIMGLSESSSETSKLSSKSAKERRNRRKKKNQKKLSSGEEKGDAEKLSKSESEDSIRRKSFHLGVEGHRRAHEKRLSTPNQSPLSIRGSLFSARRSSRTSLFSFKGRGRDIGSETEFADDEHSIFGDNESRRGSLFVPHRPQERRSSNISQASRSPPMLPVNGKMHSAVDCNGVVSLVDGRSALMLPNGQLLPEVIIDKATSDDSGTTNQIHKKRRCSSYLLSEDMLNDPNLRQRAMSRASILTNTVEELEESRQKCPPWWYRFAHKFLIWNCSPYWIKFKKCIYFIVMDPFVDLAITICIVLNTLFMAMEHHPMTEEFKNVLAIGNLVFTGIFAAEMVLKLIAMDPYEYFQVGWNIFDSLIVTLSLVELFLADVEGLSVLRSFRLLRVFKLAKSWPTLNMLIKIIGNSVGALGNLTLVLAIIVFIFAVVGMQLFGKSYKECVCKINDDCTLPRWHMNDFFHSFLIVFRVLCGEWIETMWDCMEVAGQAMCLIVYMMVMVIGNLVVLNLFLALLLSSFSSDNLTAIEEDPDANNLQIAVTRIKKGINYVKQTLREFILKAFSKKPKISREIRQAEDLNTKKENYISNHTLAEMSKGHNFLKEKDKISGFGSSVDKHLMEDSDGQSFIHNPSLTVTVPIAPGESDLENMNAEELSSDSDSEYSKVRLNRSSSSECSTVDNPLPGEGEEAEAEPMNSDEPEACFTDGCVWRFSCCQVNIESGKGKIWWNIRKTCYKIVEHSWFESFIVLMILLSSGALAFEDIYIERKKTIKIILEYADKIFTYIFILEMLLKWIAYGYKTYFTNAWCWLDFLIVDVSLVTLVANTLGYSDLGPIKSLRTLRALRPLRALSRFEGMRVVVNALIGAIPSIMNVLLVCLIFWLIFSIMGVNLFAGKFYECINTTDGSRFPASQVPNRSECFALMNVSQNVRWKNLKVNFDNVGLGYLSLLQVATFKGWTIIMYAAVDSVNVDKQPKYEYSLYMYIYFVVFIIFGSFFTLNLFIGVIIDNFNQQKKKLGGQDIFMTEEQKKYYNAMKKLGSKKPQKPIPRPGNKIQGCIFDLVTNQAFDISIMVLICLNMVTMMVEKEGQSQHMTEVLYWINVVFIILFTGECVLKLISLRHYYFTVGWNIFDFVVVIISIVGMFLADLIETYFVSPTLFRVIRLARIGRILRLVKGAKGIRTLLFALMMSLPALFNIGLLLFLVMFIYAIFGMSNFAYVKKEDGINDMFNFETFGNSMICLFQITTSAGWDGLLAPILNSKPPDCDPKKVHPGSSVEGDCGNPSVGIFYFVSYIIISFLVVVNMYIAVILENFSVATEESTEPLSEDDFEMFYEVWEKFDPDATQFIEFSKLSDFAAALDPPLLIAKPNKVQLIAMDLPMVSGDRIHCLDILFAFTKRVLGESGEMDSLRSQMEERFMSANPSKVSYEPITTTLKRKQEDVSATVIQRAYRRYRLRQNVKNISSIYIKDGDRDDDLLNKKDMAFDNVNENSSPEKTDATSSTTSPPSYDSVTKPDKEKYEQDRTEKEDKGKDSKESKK

As usually defined, the IC50 is the concentration that gives 50% inhibition. Turning to `N#CCOc1ccccc1-c1ncc(F)c2cc(S(=O)(=O)Nc3nccs3)ccc12` [Example 398, 1-(2-(CYANOMETHOXY)PHENYL)-4-FLUORO-N-(THIAZOL-2-YL)ISOQUINOLINE-6-SULFONAMIDE], the figures for the concentration for half-maximal inhibition (IC50) on Nav 1.7 and on Nav 1.5 were 197 nM and over 30000 nM, respectively.
As to `COc1cc(C(F)(F)F)ccc1-c1nccc2cc(S(=O)(=O)Nc3nc(C#N)cs3)ccc12` [Example 421, N-(4-CYANOTHIAZOL-2-YL)-1-(2-METHOXY-4-(TRIFLUOROMETHYL)PHENYL)ISOQUINOLINE-6-SULFONAMIDE], the half-inhibitory concentration (IC50) is 786 nM at Nav 1.7 and over 30000 nM on Nav 1.5.
As to `COc1ccc(-c2ccc(-c3nccc4cc(S(=O)(=O)Nc5ccncn5)ccc34)c(OC)c2)cc1` [Example 468, 1-(3,4′-DIMETHOXY-[1,1′-BIPHENYL]-4-YL)-N-(PYRIMIDIN-4-YL)ISOQUINOLINE-6-SULFONAMIDE], the IC50 on Nav 1.7 is 359 nM; on Nav 1.5, over 30000 nM.
Turning to `COc1cc(F)ccc1-c1ncnc2cc(S(=O)(=O)Nc3nccs3)ccc12` [Example 271, 4-(4-FLUORO-2-METHOXYPHENYL)-N-(THIAZOL-2-YL)QUINAZOLINE-7-SULFONAMIDE], the IC50 on Nav 1.7 is 450 nM; at Nav 1.5 it was over 30000 nM.
For `COc1ccc(Cl)cc1-c1n[nH]c(=O)c2cc(S(=O)(=O)Nc3ncns3)ccc12` [Example 505, 1-(5-CHLORO-2-METHOXYPHENYL)-4-OXO-N-(1,2,4-THIADIAZOL-5-YL)-3,4-DIHYDROPHTHALAZINE-6-SULFONAMIDE], the half-inhibitory concentration (IC50) on Nav 1.7 is 258 nM; at Nav 1.5 it was over 30000 nM.
Taken in the same sequence, the figures for `COc1cc(C(F)(F)F)ccc1-c1nccc2cc(S(=O)(=O)Nc3nc(Cl)cs3)ccc12` [Example 419, N-(4-CHLOROTHIAZOL-2-YL)-1-(2-METHOXY-4-(TRIFLUOROMETHYL)PHENYL)ISOQUINOLINE-6-SULFONAMIDE] were 272 nM and over 30000 nM.
Taken in the same sequence, the figures for `COc1nc(-c2cccc(F)c2)c(Cl)cc1-c1nccc2cc(S(=O)(=O)Nc3nncs3)ccc12` [Example 498, 1-(5-CHLORO-6-(3-FLUOROPHENYL)-2-METHOXYPYRIDIN-3-YL)-N-(1,3,4-THIADIAZOL-2-YL)ISOQUINOLINE-6-SULFONAMIDE] were 760 nM and over 30000 nM.
`COc1cc(-c2cccc(F)c2)c(Cl)cc1-c1ncnc2cc(S(=O)(=O)Nc3ccncn3)ccc12` [Example 523, 4-(2-CHLORO-3′-FLUORO-5-METHOXY-[1,1′-BIPHENYL]-4-YL)-N-(PYRIMIDIN-4-YL)QUINAZOLINE-7-SULFONAMIDE]: the IC50 on Nav 1.7 worked out at 65 nM; at Nav 1.5, 6590 nM.
Regarding `COc1cc(C#N)ccc1-c1cccc2cc(S(=O)(=O)Nc3ncns3)ccc12` [Example 330], the IC50 is 118 nM on Nav 1.7 and over 30000 nM at Nav 1.5.
With `COc1cc(C(F)F)c(F)cc1-c1nc(C)nc2cc(S(=O)(=O)Nc3nccs3)ccc12` [Example 514, 4-(4-(difluoromethyl)-5-fluoro-2-methoxyphenyl)-2-methyl-N-(thiazol-2-yl)quinazoline-7-sulfonamide], the figures for the IC50 on Nav 1.7 and on Nav 1.5 were 383 nM and over 30000 nM, respectively.
Taken in the same sequence, the figures for `COc1cc(-c2cc(F)cc(F)c2)ccc1-c1nccc2cc(S(=O)(=O)Nc3nncs3)ccc12` [Example 355, 1-(3′,5′-DIFLUORO-3-METHOXY-[1,1′-BIPHENYL]-4-YL)-N-(1,3,4-THIADIAZOL-2-YL)ISOQUINOLINE-6-SULFONAMIDE 2,2,2-TRIFLUOROACETATE] were 48 nM and over 30000 nM.
For the compound `N#CCOc1ccccc1-c1nccc2cc(S(=O)(=O)Nc3nccs3)ccc12` [Example 375, 1-(2-(CYANOMETHOXY)PHENYL)-N-(THIAZOL-2-YL)ISOQUINOLINE-6-SULFONAMIDE 2,2,2-TRIFLUOROACETATE], the concentration for half-maximal inhibition (IC50) at Nav 1.7 was 544 nM; on Nav 1.5, over 30000 nM.
With `COc1cc(-c2ccc(F)c(F)c2)ccc1-c1ncnc2cc(S(=O)(=O)Nc3nncs3)ccc12` [Example 530, 4-(3′,4′-DIFLUORO-3-METHOXY-[1,1′-BIPHENYL]-4-YL)-N-(1,3,4-THIADIAZOL-2-YL)QUINAZOLINE-7-SULFONAMIDE], the IC50 on Nav 1.7 was 233 nM; on Nav 1.5, over 30000 nM.
`COc1cc(-c2cccc(F)c2)c(Cl)cc1-c1ncnc2cc(S(=O)(=O)Nc3ncns3)ccc12` [Example 521, 4-(2-CHLORO-3′-FLUORO-5-METHOXY-[1,1′-BIPHENYL]-4-YL)-N-(1,2,4-THIADIAZOL-5-YL)QUINAZOLINE-7-SULFONAMIDE]: the IC50 on Nav 1.7 worked out at 19 nM; at Nav 1.5, 4750 nM.
Regarding `COc1cc(-c2cccc(F)c2)ccc1-c1ncnc2cc(S(=O)(=O)Nc3ncns3)ccc12` [Example 525, 4-(3′-FLUORO-3-METHOXY-[1,1′-BIPHENYL]-4-YL)-N-(1,2,4-THIADIAZOL-5-YL)QUINAZOLINE-7-SULFONAMIDE], the 50% inhibitory concentration (IC50) at Nav 1.7 is 58 nM; at Nav 1.5, over 30000 nM.
Turning to `COc1cc(-c2cc(F)cc(F)c2)c(C#N)cc1-c1nccc2cc(S(=O)(=O)Nc3nncs3)ccc12` [Example 338, 1-(2-CYANO-3′,5′-DIFLUORO-5-METHOXY-[1,1′-BIPHENYL]-4-YL)-N-(1,3,4-THIADIAZOL-2-YL)ISOQUINOLINE-6-SULFONAMIDE], the IC50 was 29 nM at Nav 1.7 and over 30000 nM at Nav 1.5.
On to `COc1cc(C(F)(F)F)ccc1-c1nc(C)nc2cc(S(=O)(=O)Nc3nccs3)ccc12` [Example 510, 4-(2-METHOXY-4-(TRIFLUOROMETHYL)PHENYL)-2-METHYL-N-(THIAZOL-2-YL)QUINAZOLINE-7-SULFONAMIDE], for which the IC50 on Nav 1.7 was 464 nM; at Nav 1.5, over 30000 nM.
As for `COc1nc(-c2ccc(C(F)(F)F)cc2OC)c2ccc(S(=O)(=O)Nc3nccs3)cc2n1` [Example 511, 2-methoxy-4-(2-methoxy-4-(trifluoromethyl)phenyl)-N-(thiazol-2-yl)quinazoline-7-sulfonamide], the IC50 at Nav 1.7 was 257 nM; on Nav 1.5, over 30000 nM.
Turning to `COc1cc(-c2cc(F)cc(F)c2)ccc1-c1nccc2cc(S(=O)(=O)Nc3ccnc(C)n3)ccc12` [Example 370, 1-(3′,5′-DIFLUORO-3-METHOXY-[1,1′-BIPHENYL]-4-YL)-N-(2-METHYLPYRIMIDIN-4-YL)ISOQUINOLINE-6-SULFONAMIDE], the IC50 was 813 nM at Nav 1.7 and over 30000 nM at Nav 1.5.
Consider `COc1ccccc1-c1nccc2cc(S(=O)(=O)Nc3nccs3)ccc12` [Example 406, 1-(2-METHOXYPHENYL)-N-(THIAZOL-2-YL)ISOQUINOLINE-6-SULFONAMIDE], for which the IC50 was 456 nM on Nav 1.7 and over 30000 nM on Nav 1.5.
With `COc1cc(-c2cccc(F)c2)c(Cl)cc1-c1ncnc2cc(S(=O)(=O)Nc3nncs3)ccc12` [Example 522, 4-(2-CHLORO-3′-FLUORO-5-METHOXY-[1,1′-BIPHENYL]-4-YL)-N-(1,3,4-THIADIAZOL-2-YL)QUINAZOLINE-7-SULFONAMIDE], the results for the concentration for half-maximal inhibition (IC50) at Nav 1.7 and on Nav 1.5 were 34 nM and over 30000 nM, respectively.
On to `COc1ccccc1-c1ccc(-c2nccc3cc(S(=O)(=O)Nc4ccncn4)ccc23)c(OC)c1` [Example 466, 1-(2′,3-DIMETHOXY-[1,1′-BIPHENYL]-4-YL)-N-(PYRIMIDIN-4-YL)ISOQUINOLINE-6-SULFONAMIDE], for which the IC50 at Nav 1.7 is 227 nM; at Nav 1.5, over 30000 nM.
In the case of `COc1cc(-c2cc(F)cc(F)c2)ccc1-c1ncnc2cc(S(=O)(=O)Nc3nncs3)ccc12` [Example 531, 4-(3′,5′-DIFLUORO-3-METHOXY-[1,1′-BIPHENYL]-4-YL)-N-(1,3,4-THIADIAZOL-2-YL)QUINAZOLINE-7-SULFONAMIDE], the IC50 is 231 nM on Nav 1.7 and over 30000 nM at Nav 1.5.
